From ChEMBL document CHEMBL4265943, “Design and synthesis of potent dual inhibitors of JAK2 and HDAC based on fusing the pharmacophores of XL019 and vorinostat” (Eur J Med Chem, 2018)

Assays:
PC-3 [1] = assay: Induction of apoptosis in human PC3 cells assessed as late apoptotic cells at 0.71 uM after 72 hrs by Annexin V-FITC/propidium iodide staining based flow cytometry (reference value: 1.01%); format: functional
HCT-116 [2] = assay: Induction of apoptosis in human HCT116 cells assessed as late apoptotic cells at 1.14 uM after 72 hrs by Annexin V-FITC/propidium iodide staining based flow cytometry (reference value: 1.45%); format: functional
[3] = biological target: Tyrosine-protein kinase JAK1 (Homo sapiens, UniProt P23458); assay: Inhibition of human JAK1 using poly(Glu:Tyr)(4:1) as substrate preincubated for 20 mins followed by [gamma33P]ATP addition measured after 120 mins by ion exchange filter paper method
MCF7 [4] = assay: Antiproliferative activity against human MCF7 cells after 72 hrs by MTT assay; format: functional, cell-based; conditions: MCF7, 72 h
MCF7 [5] = assay: Induction of apoptosis in human MCF7 cells assessed as necrotic cells at 0.86 uM after 72 hrs by Annexin V-FITC/propidium iodide staining based flow cytometry (reference value: 2.17%); format: functional
MDA-MB-231 [6] = assay: Induction of apoptosis in human MDA-MB-231 cells assessed as necrotic cells at 0.9 uM after 72 hrs by Annexin V-FITC/propidium iodide staining based flow cytometry (reference value: 5.45%); format: functional
PC-3 [7] = assay: Antiproliferative activity against human PC3 cells after 72 hrs by MTT assay; format: functional, cell-based; conditions: PC-3, 72 h
MDA-MB-231 [8] = assay: Induction of apoptosis in human MDA-MB-231 cells assessed as live cells at 0.9 uM after 72 hrs by Annexin V-FITC/propidium iodide staining based flow cytometry (reference value: 90.98%); format: functional
[9] = biological target: Non-receptor tyrosine-protein kinase TYK2 (Homo sapiens, UniProt P29597); assay: Inhibition of human TYK2 using KKSRGDYMTMQIG as substrate preincubated for 20 mins followed by [gamma33P]ATP addition measured after 120 mins by ion exchange filter paper method
[10] = Selectivity index, ratio of CC50 for mouse TAMH cells to IC50 for human PC3 cells; format: toxicity; conditions: TAMH cells (CC50) and PC3 cells (IC50)
MCF7 [11] = assay: Induction of apoptosis in human MCF7 cells assessed as early apoptotic cells at 0.86 uM after 72 hrs by Annexin V-FITC/propidium iodide staining based flow cytometry (reference value: 1.19%); format: functional
Homo sapiens [12] = species: Homo sapiens; assay: Selectivity ratio of IC50 for human JAK1 to IC50 for human JAK2
HCT-116 [13] = assay: Antiproliferative activity against human HCT116 cells after 72 hrs by MTT assay; format: functional, cell-based; conditions: HCT-116, 72 h
HCT-116 [14] = assay: Induction of apoptosis in human HCT116 cells assessed as necrotic cells at 1.14 uM after 72 hrs by Annexin V-FITC/propidium iodide staining based flow cytometry (reference value: 1.54%); format: functional
[15] = Selectivity index, ratio of CC50 for human AC10 cells to IC50 for human MCF7 cells; format: toxicity; conditions: AC10 cells (CC50) and MCF7 cells (IC50)
HCT-116 [16] = assay: Induction of apoptosis in human HCT116 cells assessed as early apoptotic cells at 1.14 uM after 72 hrs by Annexin V-FITC/propidium iodide staining based flow cytometry (reference value: 1.31%); format: functional
PC-3 [17] = assay: Induction of apoptosis in human PC3 cells assessed as necrotic cells at 0.71 uM after 72 hrs by Annexin V-FITC/propidium iodide staining based flow cytometry (reference value: 0.66%); format: functional
MDA-MB-231 [18] = assay: Induction of apoptosis in human MDA-MB-231 cells assessed as late apoptotic cells at 0.9 uM after 72 hrs by Annexin V-FITC/propidium iodide staining based flow cytometry (reference value: 2.12%); format: functional
[19] = Selectivity index, ratio of CC50 for human AC10 cells to IC50 for human MDA-MB-231 cells; format: toxicity; conditions: AC10 cells (CC50) and MDA-MB-231 cells (IC50)
[20] = Selectivity index, ratio of CC50 for mouse TAMH cells to IC50 for human HCT116 cells; format: toxicity; conditions: TAMH cells (CC50) and HCT116 cells (IC50)
[21] = Selectivity index, ratio of CC50 for mouse TAMH cells to IC50 for human MDA-MB-231 cells; format: toxicity; conditions: TAMH cells (CC50) and MDA-MB-231 cells (IC50)
Histone deacetylase 1 = Histone deacetylase 1 (Homo sapiens, UniProt Q13547); assay: Inhibition of HDAC1 (unknown origin) using Arg-His-Lys-Lys(Ac) as substrate preincubated with enzyme followed by substrate addition for 2 hrs and measured for 1.5 hrs at 15 mins time interval by fluorescence assay
PC-3 [22] = assay: Induction of apoptosis in human PC3 cells assessed as live cells at 0.71 uM after 72 hrs by Annexin V-FITC/propidium iodide staining based flow cytometry (reference value: 96.36%); format: functional
MDA-MB-231 [23] = assay: Induction of apoptosis in human MDA-MB-231 cells assessed as early apoptotic cells at 0.9 uM after 72 hrs by Annexin V-FITC/propidium iodide staining based flow cytometry (reference value: 1.45%); format: functional
[24] = Antiproliferative activity against human AC10 cells after 72 hrs by MTT assay; format: cell-based
Homo sapiens [25] = species: Homo sapiens; assay: Selectivity ratio of IC50 for human JAK3 to IC50 for human JAK2
MCF7 [26] = assay: Induction of apoptosis in human MCF7 cells assessed as live cells at 0.86 uM after 72 hrs by Annexin V-FITC/propidium iodide staining based flow cytometry (reference value: 95.05%); format: functional
Homo sapiens [27] = species: Homo sapiens; assay: Selectivity ratio of IC50 for human TYK2 to IC50 for human JAK2
[28] = Selectivity index, ratio of CC50 for human AC10 cells to IC50 for human HCT116 cells; format: toxicity; conditions: AC10 cells (CC50) and HCT116 cells (IC50)

Chain of Non-receptor tyrosine-protein kinase TYK2 (P29597 whole entry): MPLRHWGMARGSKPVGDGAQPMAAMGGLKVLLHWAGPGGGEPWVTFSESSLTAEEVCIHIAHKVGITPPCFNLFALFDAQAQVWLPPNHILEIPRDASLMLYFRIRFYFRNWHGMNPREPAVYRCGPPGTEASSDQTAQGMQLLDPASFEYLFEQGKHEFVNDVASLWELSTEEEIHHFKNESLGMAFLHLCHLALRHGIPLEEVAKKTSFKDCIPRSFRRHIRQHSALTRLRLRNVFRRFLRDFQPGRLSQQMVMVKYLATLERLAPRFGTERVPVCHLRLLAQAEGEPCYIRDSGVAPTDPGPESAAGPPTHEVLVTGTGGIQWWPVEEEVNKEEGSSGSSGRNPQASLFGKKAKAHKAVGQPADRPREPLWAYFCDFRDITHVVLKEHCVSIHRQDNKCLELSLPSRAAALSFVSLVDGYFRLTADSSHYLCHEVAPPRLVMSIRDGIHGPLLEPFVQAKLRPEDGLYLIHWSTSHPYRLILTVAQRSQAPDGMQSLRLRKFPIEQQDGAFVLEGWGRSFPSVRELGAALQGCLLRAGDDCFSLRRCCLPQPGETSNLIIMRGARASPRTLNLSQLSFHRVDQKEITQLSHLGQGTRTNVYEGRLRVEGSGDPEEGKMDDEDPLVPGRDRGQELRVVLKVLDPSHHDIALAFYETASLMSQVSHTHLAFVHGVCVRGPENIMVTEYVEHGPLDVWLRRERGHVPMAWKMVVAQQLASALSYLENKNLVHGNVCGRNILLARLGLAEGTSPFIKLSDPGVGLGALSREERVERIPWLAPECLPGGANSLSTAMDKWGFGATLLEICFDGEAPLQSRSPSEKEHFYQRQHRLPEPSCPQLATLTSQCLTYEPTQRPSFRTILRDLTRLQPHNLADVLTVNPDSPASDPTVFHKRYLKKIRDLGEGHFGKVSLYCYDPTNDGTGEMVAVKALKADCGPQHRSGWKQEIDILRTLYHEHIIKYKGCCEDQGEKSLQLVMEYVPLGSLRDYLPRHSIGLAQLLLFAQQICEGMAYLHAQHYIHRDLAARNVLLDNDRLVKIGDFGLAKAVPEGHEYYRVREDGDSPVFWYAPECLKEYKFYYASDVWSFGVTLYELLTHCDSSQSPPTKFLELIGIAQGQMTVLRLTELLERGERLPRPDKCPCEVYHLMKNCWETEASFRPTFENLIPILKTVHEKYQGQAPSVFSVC
Chain of Histone deacetylase 1 (Q13547 whole entry): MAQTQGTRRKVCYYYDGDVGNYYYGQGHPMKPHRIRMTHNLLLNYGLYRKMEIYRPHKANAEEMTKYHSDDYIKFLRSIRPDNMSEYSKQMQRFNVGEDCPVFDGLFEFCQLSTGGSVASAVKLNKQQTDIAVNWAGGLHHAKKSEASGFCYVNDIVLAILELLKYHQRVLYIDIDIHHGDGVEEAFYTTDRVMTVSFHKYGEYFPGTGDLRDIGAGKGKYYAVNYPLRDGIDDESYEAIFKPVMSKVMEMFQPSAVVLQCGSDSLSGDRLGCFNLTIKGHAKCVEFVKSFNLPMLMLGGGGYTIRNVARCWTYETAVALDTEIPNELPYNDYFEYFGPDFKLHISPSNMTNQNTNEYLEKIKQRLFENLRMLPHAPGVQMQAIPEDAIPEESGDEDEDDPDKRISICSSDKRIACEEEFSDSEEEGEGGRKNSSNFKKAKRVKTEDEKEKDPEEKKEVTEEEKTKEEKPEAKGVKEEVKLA
Chain of Tyrosine-protein kinase JAK1 (P23458 whole entry): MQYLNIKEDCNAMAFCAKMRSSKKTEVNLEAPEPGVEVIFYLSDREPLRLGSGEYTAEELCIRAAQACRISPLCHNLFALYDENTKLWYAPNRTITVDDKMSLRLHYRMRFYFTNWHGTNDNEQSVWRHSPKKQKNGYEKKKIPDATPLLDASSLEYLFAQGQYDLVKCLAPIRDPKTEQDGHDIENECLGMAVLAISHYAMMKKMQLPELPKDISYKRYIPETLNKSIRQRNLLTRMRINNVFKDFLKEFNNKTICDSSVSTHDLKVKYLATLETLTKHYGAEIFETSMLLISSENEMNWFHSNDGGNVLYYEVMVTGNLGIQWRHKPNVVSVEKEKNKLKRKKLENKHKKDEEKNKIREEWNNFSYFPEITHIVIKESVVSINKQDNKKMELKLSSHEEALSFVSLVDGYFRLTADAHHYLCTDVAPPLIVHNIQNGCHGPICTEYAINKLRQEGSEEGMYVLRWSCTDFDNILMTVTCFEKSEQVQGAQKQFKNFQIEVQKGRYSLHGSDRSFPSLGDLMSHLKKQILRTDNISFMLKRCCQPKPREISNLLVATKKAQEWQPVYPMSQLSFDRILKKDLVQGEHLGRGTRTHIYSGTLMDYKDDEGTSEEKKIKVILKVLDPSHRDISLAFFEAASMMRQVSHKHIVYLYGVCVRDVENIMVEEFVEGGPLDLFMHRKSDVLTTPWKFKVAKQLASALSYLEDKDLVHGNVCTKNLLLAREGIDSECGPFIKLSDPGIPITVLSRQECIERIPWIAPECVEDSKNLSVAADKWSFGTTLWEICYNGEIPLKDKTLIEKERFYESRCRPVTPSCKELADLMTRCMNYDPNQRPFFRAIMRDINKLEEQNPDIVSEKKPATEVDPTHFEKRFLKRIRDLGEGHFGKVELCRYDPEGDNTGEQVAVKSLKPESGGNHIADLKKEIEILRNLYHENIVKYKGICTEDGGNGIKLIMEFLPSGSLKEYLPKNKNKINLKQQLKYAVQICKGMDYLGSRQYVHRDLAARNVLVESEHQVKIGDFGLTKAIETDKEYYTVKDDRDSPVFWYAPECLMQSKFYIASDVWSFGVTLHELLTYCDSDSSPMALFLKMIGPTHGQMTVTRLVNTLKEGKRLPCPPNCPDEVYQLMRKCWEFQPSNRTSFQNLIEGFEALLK

SMILES: O=C(CCCCCCC(=O)Nc1ccc(-c2ccnc(Nc3ccc(N4CCOCC4)cc3)n2)cc1)NO
- Activity (PC-3 [1]): 13.06%
- Activity (HCT-116 [2]): 12.12%
- IC50 [3]: 52.1 nM
- IC50 (MCF7 [4]): 700 nM
- Activity (MCF7 [5]): 7.97%
- Activity (MDA-MB-231 [6]): 5.87%
- IC50 (PC-3 [7]): 640 nM
- Activity (MDA-MB-231 [8]): 10.29%
- IC50 [9]: 79.4 nM
- selectivity ratio [10]: 9.98
- Activity (MCF7 [11]): 29.26%
- Ratio IC50 (Homo sapiens [12]): 16.8
- IC50 (HCT-116 [13]): 1050 nM
- Activity (HCT-116 [14]): 4.29%
- selectivity ratio [15]: 5.69
- Activity (HCT-116 [16]): 31.19%
- Activity (PC-3 [17]): 1.37%
- Activity (MDA-MB-231 [18]): 39.98%
- selectivity ratio [19]: 4.02
- selectivity ratio [20]: 6.09
- selectivity ratio [21]: 6.45
- IC50 (Histone deacetylase 1): 56 nM
- Activity (PC-3 [22]): 39.88%
- Activity (MDA-MB-231 [23]): 43.86%
- CC50 at 72 h [24]: 3980 nM
- Ratio IC50 (Homo sapiens [25]): 25.8
- Activity (MCF7 [26]): 37.54%
- Ratio IC50 (Homo sapiens [27]): 25.6
- selectivity ratio [28]: 3.79
